We go through 22 compounds from patent US8143422B2, “Benzimidazole derivatives” (Hoffmann-La Roche Inc., priority 2008, dated 2012).

What is called IC50 is the concentration that gives 50% inhibition. A low value points to greater potency in that assay.

The target of this assay is T1, FXR ligand binding domain (GST-FXR LBD fusion protein) (Homo sapiens, UniProt Q96RI1).
T1 construct: made in house; host or cells: E. coli BL21(pLysS)
T1 sequence (Q96RI1 193-472 isoform Q96RI1-2 limits assumed): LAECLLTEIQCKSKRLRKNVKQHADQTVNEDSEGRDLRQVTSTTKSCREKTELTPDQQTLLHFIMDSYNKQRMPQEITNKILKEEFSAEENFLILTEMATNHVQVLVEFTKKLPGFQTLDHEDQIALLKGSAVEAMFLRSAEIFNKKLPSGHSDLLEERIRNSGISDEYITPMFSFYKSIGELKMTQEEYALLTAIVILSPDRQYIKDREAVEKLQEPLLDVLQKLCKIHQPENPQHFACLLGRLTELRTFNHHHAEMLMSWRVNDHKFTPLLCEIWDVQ
Put plainly: Radioligand binding assay (scintillation proximity, radioligand displacement). The settings on record: GST-FXR LBD on SPA beads, 20 nM radioligand, test compound 6×10^−9 M to 2.5×10^−5 M. As for the experimental part: The following tests were carried out in order to determine the activity of the compounds of formula (I). Background information on the binding assay can be found in: Nichols J S et al. “Development of a scintillation proximity assay for peroxisome proliferator-activated receptor gamma ligand binding domain”, (1998) Anal. Biochem. 257: 112-119.
Bacterial and mammalian expression vectors were constructed to produce glutathione-s-transferase (GST) and Gal4 DNA binding domain (GAL) proteins fused to the ligand binding domain (LBD) of human FXR (aa 193-473). To accomplish this, the portions of the sequences encoding the FXR LBD were amplified by polymerase chain reaction (PCR) from a full-length clone by PCR and then subcloned into the plasmid vectors. The final clone was verified by DNA sequence analysis.
The induction, expression, and subsequent purification of GST-LBD fusion protein was performed in E. coli strain BL21(pLysS) cells by standard methods (Current Protocols in Molecular Biology, Wiley Press, ed. Ausubel et al.).
Radioligand Binding Assay
Binding of test substances to the FXR ligand binding domain was assessed in a radioligand displacement assay. The assay was performed in a buffer consisting of 50 mM Hepes, pH 7.4, 10 mM NaCl, 5 mM MgCl2, 0.01% CHAPS. For each reaction well in a 96-well plate, 40 nM of GST-FXR LBD fusion protein was bound to 10 μg glutathione ytrium silicate SPA beads (PharmaciaAmersham) in a final volume of 50 μl by shaking. A radioligand (e.g., 20 nM of 2,N-dicyclohexyl-2-[2-(2,4 dimethoxy-phenyl)-benzoimidazol-1-yl]-acetamide) and test compounds were added, and scintillation proximity counting was performed. All binding assays were performed in 96-well plates and the amount of bound ligand was measured on a Packard TopCount using OptiPlates (Packard). Dose response curves were performed within a range of test compound concentrations from 6×10^−9 M to 2.5×10^−5 M and IC50 values were calculated.

Compound “6-{(R)-2-Cyclohexyl-2-[5,6-difluoro-2-((S)-methoxy-phenyl-methyl)-benzoimidazol-1-yl]-acetylamino}-nicotinic acid [Example 10A]” registered an IC50 of 200 nM. Under “6-{(S)-2-Cyclohexyl-2-[5,6-difluoro-2-((S)-methoxy-phenyl-methyl)-benzoimidazol-1-yl]-acetylamino}-nicotinic acid [Example 10B]” stands 100 nM; under `CO[C@@H](c1ccccc1)c1nc2cc(F)c(F)cc2n1[C@@H](C(=O)Nc1ccc(C(=O)O)cc1)C1CCCCC1` (single isomer, unassigned) [Example 1A], 1900 nM.

In turn, `CO[C@@H](c1ccccc1)c1nc2cc(F)c(F)cc2n1[C@H](C(=O)Nc1ccc(C(=O)O)cc1)C1CCCCC1` (single isomer, unassigned) [Example 1B] came in with an IC50 of 1000 nM. Under `CO[C@H](c1ccccc1)c1nc2cc(F)c(F)cc2n1[C@@H](C(=O)Nc1ccc(C(=O)O)cc1)C1CCCCC1` (single isomer, unassigned) [Example 2A] stands 1600 nM. For `CO[C@H](c1ccccc1)c1nc2cc(F)c(F)cc2n1[C@H](C(=O)Nc1ccc(C(=O)O)cc1)C1CCCCC1` (single isomer, unassigned) [Example 2B], the IC50 was 300 nM.

With `CO[C@@H](c1ccccc1)c1nc2cc(F)c(F)cc2n1[C@@H](C(=O)Nc1ccc(C(=O)O)cc1F)C1CCCCC1` (single isomer, unassigned) [Example 3A], the IC50 came to 500 nM. Under `CO[C@@H](c1ccccc1)c1nc2cc(F)c(F)cc2n1[C@H](C(=O)Nc1ccc(C(=O)O)cc1F)C1CCCCC1` (single isomer, unassigned) [Example 3B] stands 400 nM. Under `CO[C@H](c1ccccc1)c1nc2cc(F)c(F)cc2n1[C@@H](C(=O)Nc1ccc(C(=O)O)cc1F)C1CCCCC1` (single isomer, unassigned) [Example 4A] stands 500 nM. Under `CO[C@H](c1ccccc1)c1nc2cc(F)c(F)cc2n1[C@H](C(=O)Nc1ccc(C(=O)O)cc1F)C1CCCCC1` (single isomer, unassigned) [Example 4B] stands 30 nM.

In turn, `CO[C@@H](c1ccccc1)c1nc2cc(F)c(F)cc2n1[C@@H](C(=O)Nc1ccc(C(=O)O)cc1C)C1CCCCC1` (single isomer, unassigned) [Example 5A] returned an IC50 of 300 nM. Under `CO[C@@H](c1ccccc1)c1nc2cc(F)c(F)cc2n1[C@H](C(=O)Nc1ccc(C(=O)O)cc1C)C1CCCCC1` (single isomer, unassigned) [Example 5B] stands 1100 nM. Under `CO[C@H](c1ccccc1)c1nc2cc(F)c(F)cc2n1[C@@H](C(=O)Nc1ccc(C(=O)O)cc1C)C1CCCCC1` (single isomer, unassigned) [Example 6A] stands 5000 nM. Under `CO[C@H](c1ccccc1)c1nc2cc(F)c(F)cc2n1[C@H](C(=O)Nc1ccc(C(=O)O)cc1C)C1CCCCC1` (single isomer, unassigned) [Example 6B] stands 60 nM.

On to `CO[C@@H](c1ccccc1)c1nc2cc(F)c(F)cc2n1[C@@H](C(=O)Nc1ccc(C(=O)O)cc1Cl)C1CCCCC1` (single isomer, unassigned) [Example 7A], for which the IC50 is 300 nM. Under `CO[C@@H](c1ccccc1)c1nc2cc(F)c(F)cc2n1[C@H](C(=O)Nc1ccc(C(=O)O)cc1Cl)C1CCCCC1` (single isomer, unassigned) [Example 7B] stands 20 nM; under `CO[C@H](c1ccccc1)c1nc2cc(F)c(F)cc2n1[C@@H](C(=O)Nc1ccc(C(=O)O)cc1Cl)C1CCCCC1` (single isomer, unassigned) [Example 8A], 400 nM. As to `CO[C@H](c1ccccc1)c1nc2cc(F)c(F)cc2n1[C@H](C(=O)Nc1ccc(C(=O)O)cc1Cl)C1CCCCC1` (single isomer, unassigned) [Example 8B], the half-inhibitory concentration (IC50) stood at 60 nM.

The compound `CO[C@@H](c1ccccc1)c1nc2cc(F)c(F)cc2n1[C@@H](C(=O)Nc1ccc(C(=O)O)cn1)C1CCCCC1` (single isomer, unassigned) [Example 9A] had an IC50 of 1700 nM. Under `CO[C@@H](c1ccccc1)c1nc2cc(F)c(F)cc2n1[C@H](C(=O)Nc1ccc(C(=O)O)cn1)C1CCCCC1` (single isomer, unassigned) [Example 9B] stands 2600 nM. Under `CO[C@H](c1ccccc1)c1nc2cc(F)ccc2n1C(C(=O)N[C@H]1CC[C@H](CC(=O)O)CC1)C1CCCCC1` (stereo partly drawn) [Example 11, (trans-4-{2-Cyclohexyl-2-[5-fluoro-2-((R)-methoxy-phenyl-methyl)-benzoimidazol-1-yl]-acetylamino}-cyclohexyl)-acetic acid] stands 21000 nM; under `CO[C@H](c1ccccc1)c1nc2cc(F)ccc2n1C(C(=O)N[C@H]1CC[C@H](C(=O)O)CC1)C1CCCCC1` (stereo partly drawn) [Example 12, trans-4-{2-Cyclohexyl-2-[5-fluoro-2-((R)-methoxy-phenyl-methyl)-benzoimidazol-1-yl]-acetylamino}-cyclohexanecarboxylic acid], 6800 nM.
